Laboratory results reported in ChEMBL document CHEMBL5226326, “Discovery of 1-Benzoyl 4-Phenoxypiperidines as Small-Molecule Inhibitors of the β-Catenin/B-Cell Lymphoma 9 Protein-Protein Interaction” (J Med Chem, 2021).

Experiments:
[1] = target: T1, beta-catenin-B-cell lymphoma 9 protein complex (Homo sapiens, UniProt P35222); test: Inhibition of full length beta-catenin (1 to 781 residues) (unknown origin) expressed in Escherichia coli BL21 (DE3)/N-terminal biotinylated human BCL9 HD2 (350 to 375 residues) protein-protein interaction incubated for 1 hr by Alphascreen assay
T1 sequence (P35222 whole entry): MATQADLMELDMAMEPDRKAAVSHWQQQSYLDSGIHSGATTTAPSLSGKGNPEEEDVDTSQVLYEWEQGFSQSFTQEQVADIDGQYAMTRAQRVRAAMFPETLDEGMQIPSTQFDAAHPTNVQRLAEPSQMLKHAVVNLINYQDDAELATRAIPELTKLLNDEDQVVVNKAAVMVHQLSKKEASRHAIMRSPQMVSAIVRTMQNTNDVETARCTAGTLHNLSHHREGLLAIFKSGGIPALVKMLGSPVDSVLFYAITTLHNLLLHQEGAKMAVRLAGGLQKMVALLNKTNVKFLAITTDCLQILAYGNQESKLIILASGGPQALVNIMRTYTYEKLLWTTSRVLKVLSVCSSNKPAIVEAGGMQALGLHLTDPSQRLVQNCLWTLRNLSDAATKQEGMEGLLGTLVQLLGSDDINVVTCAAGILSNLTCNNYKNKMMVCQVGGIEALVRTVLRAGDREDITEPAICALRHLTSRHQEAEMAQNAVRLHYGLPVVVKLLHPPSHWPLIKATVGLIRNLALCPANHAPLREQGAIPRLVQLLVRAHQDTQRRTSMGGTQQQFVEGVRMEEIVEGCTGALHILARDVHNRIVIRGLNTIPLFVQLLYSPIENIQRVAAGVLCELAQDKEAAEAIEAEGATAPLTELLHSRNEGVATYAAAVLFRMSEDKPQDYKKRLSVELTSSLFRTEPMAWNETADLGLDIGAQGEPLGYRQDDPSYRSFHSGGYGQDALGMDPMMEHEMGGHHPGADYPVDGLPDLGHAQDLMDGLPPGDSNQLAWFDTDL
T1 sequence (O00512 whole entry): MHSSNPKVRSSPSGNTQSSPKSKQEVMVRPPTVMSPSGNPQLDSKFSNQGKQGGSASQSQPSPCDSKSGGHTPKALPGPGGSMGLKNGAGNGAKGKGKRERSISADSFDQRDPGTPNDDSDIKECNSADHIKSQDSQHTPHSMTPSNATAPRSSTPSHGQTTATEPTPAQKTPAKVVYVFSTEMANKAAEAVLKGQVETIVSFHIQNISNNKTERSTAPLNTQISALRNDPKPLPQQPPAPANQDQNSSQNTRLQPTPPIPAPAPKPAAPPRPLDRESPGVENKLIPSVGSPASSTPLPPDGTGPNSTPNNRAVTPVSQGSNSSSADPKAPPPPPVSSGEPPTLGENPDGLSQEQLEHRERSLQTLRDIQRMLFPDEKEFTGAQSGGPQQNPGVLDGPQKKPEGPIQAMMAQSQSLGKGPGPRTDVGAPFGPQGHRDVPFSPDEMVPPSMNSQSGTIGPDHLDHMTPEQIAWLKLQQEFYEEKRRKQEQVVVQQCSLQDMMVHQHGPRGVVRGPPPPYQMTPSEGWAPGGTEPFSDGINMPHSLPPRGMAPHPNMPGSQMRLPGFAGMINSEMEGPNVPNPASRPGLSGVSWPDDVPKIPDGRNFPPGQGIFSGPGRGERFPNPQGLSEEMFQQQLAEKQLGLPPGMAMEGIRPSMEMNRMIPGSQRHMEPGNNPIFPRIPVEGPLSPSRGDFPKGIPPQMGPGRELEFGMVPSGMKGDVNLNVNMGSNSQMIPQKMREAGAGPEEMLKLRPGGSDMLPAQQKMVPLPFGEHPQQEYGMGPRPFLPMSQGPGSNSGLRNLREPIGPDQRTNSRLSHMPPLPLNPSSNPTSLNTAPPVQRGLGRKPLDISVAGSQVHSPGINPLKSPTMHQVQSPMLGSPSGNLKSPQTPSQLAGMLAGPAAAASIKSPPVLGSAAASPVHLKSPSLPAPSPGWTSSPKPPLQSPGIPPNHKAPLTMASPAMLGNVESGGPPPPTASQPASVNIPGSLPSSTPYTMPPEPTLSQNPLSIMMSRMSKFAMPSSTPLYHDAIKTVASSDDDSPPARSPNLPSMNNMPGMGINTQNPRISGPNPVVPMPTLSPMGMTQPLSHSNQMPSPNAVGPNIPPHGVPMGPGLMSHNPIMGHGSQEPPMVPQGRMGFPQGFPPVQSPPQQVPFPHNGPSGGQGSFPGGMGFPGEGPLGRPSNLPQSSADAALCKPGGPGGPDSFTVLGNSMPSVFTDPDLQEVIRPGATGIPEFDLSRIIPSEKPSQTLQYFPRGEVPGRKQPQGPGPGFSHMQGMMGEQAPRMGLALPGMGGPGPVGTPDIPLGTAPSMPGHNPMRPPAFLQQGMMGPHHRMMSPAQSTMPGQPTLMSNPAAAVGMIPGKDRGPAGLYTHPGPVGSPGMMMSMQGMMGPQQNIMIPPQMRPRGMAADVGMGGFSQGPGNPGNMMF

[2] = target: T1, beta-catenin-B-cell lymphoma 9 protein complex; test: Inhibition of full length beta-catenin (1 to 781 residues) (unknown origin) expressed in Escherichia coli BL21 (DE3)/N-terminal biotinylated human BCL9 HD2 (350 to 375 residues) protein-protein interaction assessed as inhibition constant incubated for 1 hr by Alphascreen assay

CC(O)C(=O)N1CCC(c2cc(C(=O)N3CCC(Oc4cc(F)cc(N5CCNCC5)c4)CC3)ccc2O[C@H]2CCNC2)CC1 (stereo partly specified)
IC50 [1]: 37 µM | Ki [2]: 34 µM

CC(C)(C)C1CCC(c2cc(C(=O)N3CCC(Oc4cc(N5CCNCC5)cc(C(F)(F)F)c4)CC3)ccc2O[C@H]2CCNC2)CC1 (stereo partly specified)
IC50 [1]: 4.3 µM | Ki [2]: 3.6 µM

NCc1cn(Cc2cc(F)cc(OC3CCN(C(=O)c4ccc(O[C@H]5CCNC5)c(C5CCCCC5)c4)CC3)c2)nn1
IC50 [1]: > 100 µM | Ki [2]: > 84 µM

O=C(c1ccc(OC2CCNCC2)c(C2CCCCC2)c1)N1CCC(Oc2cc(F)cc(N3CCNCC3)c2)CC1
IC50 [1]: > 100 µM | Ki [2]: > 84 µM

O=C(c1ccc(O[C@H]2CCNC2)c(C2CCCCC2)c1)N1CCC(Oc2cc(F)cc(N3CCNCC3=O)c2)CC1
IC50 [1]: > 100 µM | Ki [2]: > 84 µM

CNC(=O)c1ccc(N2CCNCC2)cc1OC1CCN(C(=O)c2ccc(O[C@H]3CCNC3)c(C3CCC(C(C)(C)C)CC3)c2)CC1 (mixture of isomers)
IC50 [1]: 47 µM | Ki [2]: 38 µM

CC(C)(C)C1CCC(c2cc(C(=O)N3CCC(Oc4cc(C#N)cc(N5CCNCC5)c4)CC3)ccc2O[C@H]2CCNC2)CC1 (mixture of isomers)
IC50 [1]: 5.2 µM | Ki [2]: 4.4 µM

CC(C)(C)C1CCC(c2cc(C(=O)N3CCC(Oc4cccc(N5CCNCC5)c4)CC3)ccc2O[C@H]2CCNC2)CC1 (mixture of isomers)
IC50 [1]: 20 µM | Ki [2]: 17 µM

O=C(c1ccc(O[C@@H]2CCNC2)c(C2CCCCC2)c1)N1CCC(Oc2cc(F)cc(N3CCNCC3)c2)CC1
IC50 [1]: 64 µM | Ki [2]: 52 µM

O=C(c1ccc(O[C@H]2CCNC2)c(-c2ccccc2)c1)N1CCC(Oc2cc(F)cc(N3CCNCC3)c2)CC1
IC50 [1]: 47 µM | Ki [2]: 42 µM

O=C(c1cc(F)cc(N2CCNCC2)c1)N1CCN(C(=O)c2ccc(O[C@@H]3CCNC3)c(C3CCCCC3)c2)CC1
IC50 [1]: ≥ 60 µM | Ki [2]: 50 µM

O=C(c1ccc(O[C@H]2CCNC2)c(-c2ccc(C(F)(F)F)cc2)c1)N1CCC(Oc2cc(F)cc(N3CCNCC3)c2)CC1
IC50 [1]: 18 µM | Ki [2]: 16 µM

CC(C)(C)C1CCC(c2cc(C(=O)N3CCC(Oc4cc(F)cc(N5CCNCC5)c4)CC3)ccc2O[C@H]2CCNC2)CC1 (mixture of isomers)
IC50 [1]: 3.6 µM | Ki [2]: 3.2 µM

CN(C)Cc1cn(Cc2cc(F)cc(OC3CCN(C(=O)c4ccc(O[C@H]5CCNC5)c(C5CCCCC5)c4)CC3)c2)nn1
IC50 [1]: 80 µM | Ki [2]: 72 µM

CC(C)(C)C1CCC(c2cc(C(=O)N3CCC(Oc4cc(Cl)cc(N5CCNCC5)c4)CC3)ccc2O[C@H]2CCNC2)CC1 (mixture of isomers)
IC50 [1]: 4.3 µM | Ki [2]: 3.6 µM

O=C(c1ccc(O[C@H]2CCNC2)c(C2CCCCC2)c1)N1CCC(Oc2cc(F)cc(N3CCC4(CC3)CNC4)c2)CC1
IC50 [1]: > 100 µM | Ki [2]: > 84 µM

O=C(c1ccc(O[C@H]2CCNC2)c(C2CCCCC2)c1)N1CCC(Oc2cc(F)cc(N3CC4(CCNCC4)C3)c2)CC1
IC50 [1]: > 100 µM | Ki [2]: > 84 µM

NCCC(=O)Nc1cc(F)cc(OC2CCN(C(=O)c3ccc(O[C@H]4CCNC4)c(C4CCCCC4)c3)CC2)c1
IC50 [1]: 69 µM | Ki [2]: 62 µM

CC(C)(C)C(=O)N1CCC(c2cc(C(=O)N3CCC(Oc4cc(F)cc(N5CCNCC5)c4)CC3)ccc2O[C@H]2CCNC2)CC1
IC50 [1]: > 100 µM | Ki [2]: > 84 µM

O=C(c1ccc(O[C@H]2CCNC2)c(-c2ccc3ccccc3c2)c1)N1CCC(Oc2cc(F)cc(N3CCNCC3)c2)CC1
IC50 [1]: 4.6 µM | Ki [2]: 4.1 µM

O=C(c1ccc(O[C@H]2CCNC2)c(C2CCCCC2)c1)N1CCC(Oc2cc(F)cc(N3CCNCC3)c2)CC1
IC50 [1]: 57 µM | Ki [2]: 46 µM

O=C(c1ccc(O[C@H]2CCNC2)c(C2CCOCC2)c1)N1CCC(Oc2cc(F)cc(N3CCNCC3)c2)CC1
IC50 [1]: > 100 µM | Ki [2]: > 84 µM

O=C(c1ccc(O[C@H]2CCNC2)c(-c2ccc3ccsc3c2)c1)N1CCC(Oc2cc(F)cc(N3CCNCC3)c2)CC1
IC50 [1]: 4.5 µM | Ki [2]: 4 µM

CC(C)(C)C1CCC(c2cc(C(=O)N3CCC(Oc4cc(N5CCNCC5)ccc4C(N)=O)CC3)ccc2O[C@H]2CCNC2)CC1 (mixture of isomers)
IC50 [1]: 20 µM | Ki [2]: 16 µM

O=C(c1ccc(O[C@H]2CCNC2)c(C2CCN(C(=O)C3CC3)CC2)c1)N1CCC(Oc2cc(F)cc(N3CCNCC3)c2)CC1
IC50 [1]: 39 µM | Ki [2]: 35 µM

CC(C)C(=O)N1CCC(c2cc(C(=O)N3CCC(Oc4cc(F)cc(N5CCNCC5)c4)CC3)ccc2O[C@H]2CCNC2)CC1
IC50 [1]: 35 µM | Ki [2]: 31 µM

CC(C)(C)C1CCC(c2cc(C(=O)N3CCC(Oc4cc(N5CCNCC5)ccc4F)CC3)ccc2O[C@H]2CCNC2)CC1 (mixture of isomers)
IC50 [1]: 6.2 µM | Ki [2]: 5 µM

NCCCC(=O)Nc1cc(F)cc(OC2CCN(C(=O)c3ccc(O[C@H]4CCNC4)c(C4CCCCC4)c3)CC2)c1
IC50 [1]: 73 µM | Ki [2]: 66 µM

CC(C)(C)c1ccc(-c2cc(C(=O)N3CCC(Oc4cc(F)cc(N5CCNCC5)c4)CC3)ccc2O[C@H]2CCNC2)cc1
IC50 [1]: 11 µM | Ki [2]: 10 µM

O=C(c1ccc(O[C@H]2CCNC2)c(-c2ccc3nc[nH]c3c2)c1)N1CCC(Oc2cc(F)cc(N3CCNCC3)c2)CC1
IC50 [1]: 48 µM | Ki [2]: 43 µM

CC(C)(C)C1CCC(c2cc(C(=O)N3CCC(Oc4cc(N5CCNCC5)cc(F)c4F)CC3)ccc2O[C@H]2CCNC2)CC1 (mixture of isomers)
IC50 [1]: 3.7 µM | Ki [2]: 3.1 µM

CC(C)(C)C1CCC(c2cc(C(=O)N3CCC(Oc4cc(N5CCNCC5)ccc4C#N)CC3)ccc2O[C@H]2CCNC2)CC1 (mixture of isomers; 44)
IC50 [1]: 3.3 µM | Ki [2]: 2.7 µM

CC(C)(C)C1CCC(c2cc(C(=O)N3CCC(Oc4ccc(F)c(N5CCNCC5)c4)CC3)ccc2O[C@H]2CCNC2)CC1 (mixture of isomers)
IC50 [1]: 6.7 µM | Ki [2]: 5.6 µM

O=C(c1ccc(O[C@H]2CCNC2)c(C2CCCCC2)c1)N1CCC(Oc2cc(F)cc(N3C[C@H]4CNC[C@H]4C3)c2)CC1
IC50 [1]: > 100 µM | Ki [2]: > 84 µM

O=C(c1ccc(O[C@H]2CCNC2)c(C2CCC(C(F)(F)F)CC2)c1)N1CCC(Oc2cc(F)cc(N3CCNCC3)c2)CC1 (mixture of isomers)
IC50 [1]: 20 µM | Ki [2]: 13 µM

O=C(c1ccc(O[C@H]2CCNC2)c(-c2ccc3[nH]ncc3c2)c1)N1CCC(Oc2cc(F)cc(N3CCNCC3)c2)CC1
IC50 [1]: 8.8 µM | Ki [2]: 7.9 µM

CC(C)(C)C1CCC(c2cc(C(=O)N3CCC(Oc4cc(N5CCNCC5)ccc4C#N)CC3)ccc2O[C@H]2CCNC2)CC1 (mixture of isomers; 36)
IC50 [1]: 1.5 µM | Ki [2]: 1.2 µM

CN(C)C(=O)c1ccc(N2CCNCC2)cc1OC1CCN(C(=O)c2ccc(O[C@H]3CCNC3)c(C3CCC(C(C)(C)C)CC3)c2)CC1 (mixture of isomers)
IC50 [1]: > 100 µM | Ki [2]: > 84 µM
